Source: US6881741B2 (ViroChem Pharma Inc., priority 2001, dated 2005)
Counter-ions that a name gives are not always drawn.

Biological target: recombinant HCV NS5B (HCV RNA-dependent RNA polymerase) (Hepatitis C virus genotype 1b, UniProt P26663)
Experiment: biochemical
Details: HCV polymerase activity, list of compounds of Example 27; read-out: IC50 (polymerase activity)

Sequence of recombinant HCV NS5B (HCV RNA-dependent RNA polymerase) (P26663 2420-3010 limits assumed): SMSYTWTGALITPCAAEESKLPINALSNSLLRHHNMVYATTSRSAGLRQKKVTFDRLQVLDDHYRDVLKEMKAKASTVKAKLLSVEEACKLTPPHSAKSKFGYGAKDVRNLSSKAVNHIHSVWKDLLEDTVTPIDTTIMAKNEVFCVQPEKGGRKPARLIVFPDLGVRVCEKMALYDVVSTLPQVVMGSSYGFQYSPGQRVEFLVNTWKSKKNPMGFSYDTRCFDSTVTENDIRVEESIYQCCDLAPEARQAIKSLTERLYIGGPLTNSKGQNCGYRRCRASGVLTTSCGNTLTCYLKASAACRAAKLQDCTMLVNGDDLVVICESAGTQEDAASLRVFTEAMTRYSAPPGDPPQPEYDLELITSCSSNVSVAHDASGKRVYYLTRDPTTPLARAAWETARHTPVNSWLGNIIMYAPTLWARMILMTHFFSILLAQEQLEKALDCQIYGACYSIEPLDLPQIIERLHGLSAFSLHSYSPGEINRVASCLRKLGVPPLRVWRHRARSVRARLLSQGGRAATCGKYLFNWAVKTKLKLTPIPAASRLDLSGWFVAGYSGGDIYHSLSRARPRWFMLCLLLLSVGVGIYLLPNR

Compound | IC50 [µM]
CC(COCc1ccccc1)N(C(=O)c1ccc(Cl)cc1Cl)c1cc(-c2ccccc2)sc1C(=O)O (stereo not shown) [Compound 516, 3-[(2-BENZYLOXY-1-METHYL-ETHYL)- (2,4-DICHLORO-BENZOYL)-AMINO]-5- PHENYL-THIOPHENE-2-CARBOXYLIC ACID] | < 5
CC1CCC(C(=O)N(c2cc(-c3ccccc3)sc2C(=O)O)C2COC(C)(C)OC2)CC1 (stereo not shown) [Compound 517, 3-[(2,2-DIMETHYL-[1,3]DIOXAN-5-YL)-(4- METHYL-CYCLOHEXANECARBONYL)- AMINO]-5-PHENYL-THIOPHENE-2- CARBOXYLIC ACID] | < 5
O=C(O)c1sc(-c2ccccc2)cc1N(C(=O)c1ccc(Cl)cc1Cl)C(CO)CO [Compound 518, 3-[(2,4-DICHLORO-BENZOYL)-(2- HYDROXY-1-HYDROXYMETHYL-ETHYL)- AMINO]-5-PHENYL-THIOPHENE-2- CARBOXYLIC ACID] | < 5
O=C(O)c1sc(-c2ccccc2)cc1N(CC1CCNCC1)C(=O)c1ccc(Cl)cc1Cl [Compound 519, 3-[(2,4-DICHLORO-BENZOYL)-PIPERIDIN- 4-YLMETHYL-AMINO]-5-PHENYL- THIOPHENE-2-CARBOXYLIC ACID] | < 5
O=C(O)c1sc(-c2ccccc2)cc1N(CC1CCNCC1)C(=O)c1ccccc1Cl [Compound 520, 3-[(2-CHLORO-BENZOYL)-PIPERIDIN-4- YLMETHYL-AMINO]-5-PHENYL- THIOPHENE-2-CARBOXYLIC ACID] | < 5
CC(C)N(C(=O)c1cc2c(Cl)cc(Cl)cc2[nH]1)c1cc(-c2ccccc2)sc1C(=O)O [Compound 521, 3-[(4,6-DICHLORO-1#H!-INDOLE-2- CARBONYL)-ISOPROPYL-AMINO]-5- PHENYL-THIOPHENE-2-CARBOXYLIC ACID] | < 5
CC(C1CCN(C(=O)OCc2ccccc2)CC1)N(C(=O)c1ccc(Cl)cc1Cl)c1cc(-c2ccccc2)sc1C(=O)O (stereo not shown) [Compound 523, 4-{1-[(2-CARBOXY-5-PHENYL-THIOPHEN- 3-YL)-(2,4-DICHLORO-BENZOYL)-AMINO]- ETHYL}-PIPERIDINE-1-CARBOXYLIC ACID BENZYL ESTER] | 5 to 20
CC1CCC(C(=O)N(c2cc(C3=CCN(C(=O)OCc4ccccc4)CC3)sc2C(=O)O)C(C)C)CC1 (stereo not shown) [Compound 524, 4-{5-CARBOXY-4-[ISOPROPYL-(4- METHYL-CYCLOHEXANECARBONYL)- AMINO]-THIOPHEN-2-YL}-3,6-DIHYDRO- 2#H!-PYRIDINE-1-CARBOXYLIC ACID BENZYL ESTER] | < 5
CC1CCC(C(=O)N(c2ccncc2)c2cc(-c3ccccc3)sc2C(=O)O)CC1 (stereo not shown) [Compound 525, 3-[(4-METHYL- CYCLOHEXANECARBONYL)-PYRIDIN-4- YL-AMINO]-5-PHENYL-THIOPHENE-2- CARBOXYLIC ACID] | < 5
CC(C)N(C(=O)c1ccc(Cl)cc1Cl)c1cc(C2CCNCC2)sc1C(=O)O [Compound 526, 3-[(2,4-DICHLORO-BENZOYL)- ISOPROPYL-AMINO]-5-PIPERIDIN-4-YL- THIOPHENE-2-CARBOXYLIC ACID; COMPOUND WITH TRIFLUORO-ACETIC ACID] | > 20
CCCC1CCC(C(=O)N(c2cc(-c3ccccc3)sc2C(=O)O)C(C)C)CC1 (stereo not shown) [Compound 527, 3-[ISOPROPYL-(4-PROPYL- CYCLOHEXANECARBONYL)-AMINO]-5- PHENYL-THIOPHENE-2-CARBOXYLIC ACID] | < 5
NC1CCC(N(C(=O)c2ccc(Cl)cc2Cl)c2cc(-c3ccccc3)sc2C(=O)O)CC1 (stereo not shown) [Compound 528, 4-[(2-CARBOXY-5-PHENYL-THIOPHEN-3- YL(-(2,4-DICHLORO-BENZOYL)-AMINO]- CYCLOHEXYL-AMMONIUM; TRIFLUORO- ACETATE] | < 5
CC(C1CCNCC1)N(C(=O)c1ccc(Cl)cc1Cl)c1cc(-c2ccccc2)sc1C(=O)O (stereo not shown) [Compound 529, 3-[(2,4-DICHLORO-BENZOYL)-(1- PIPERIDIN-4-YL-ETHYL)-AMINO]-5- PHENYL-THIOPHENE-2- CARBOXYLIC ACID; COMPOUND WITH TRIFLUORO-ACETIC ACID] | < 5
CC(C)N(C(=O)C1CC=CCC1)c1cc(-c2ccccc2)sc1C(=O)O (stereo not shown) [Compound 530, 3-[(CYCLOHEX-3-ENECARBONYL)- ISOPROPYL-AMINO]-5-PHENYL- THIOPHENE-2-CARBOXYLIC ACID] | 5 to 20
CCC1CCC(C(=O)N(c2cc(-c3ccccc3)sc2C(=O)O)C(C)C)CC1 (stereo not shown) [Compound 531, 3-[(4-ETHYL-CYCLOHEXANECARBONYL)- ISOPROPYL-AMINO]-5-PHENYL- THIOPHENE-2-CARBOXYLIC ACID] | < 5
CC(C)N(C(=O)C1CCC(Cl)CC1)c1cc(-c2ccccc2)sc1C(=O)O (stereo not shown) [Compound 532, 3-[(4-CHLORO- CYCLOHEXANECARBONYL)-ISOPROPYL- AMINO]-5-PHENYL-THIOPHENE-2- CARBOXYLIC ACID] | < 5
CC1CN(C(=O)OCc2ccccc2)CCC1N(C(=O)c1ccc(Cl)cc1Cl)c1cc(-c2ccccc2)sc1C(=O)O (stereo not shown) [Compound 533, 4-[(2-CARBOXY-5-PHENYL-THIOPHEN-3- YL)-(2,4-DICHLORO-BENZOYL)-AMINO]-3- METHYL- PIPERIDINE-1-CARBOXYLIC ACID BENZYL ESTER] | < 5

Compound | IC50 [µM]
CO[C@H]1CCCCC1N(C(=O)c1ccc(Cl)cc1Cl)c1cc(-c2ccccc2)sc1C(=O)O (stereo partly shown) [Compound 534, 3-[(2-DICHLORO-BENZOYL)-(2- METHOXY-CYCLOHEXYL)-AMINO]-5- PHENYL-THIOPHENE-2- CARBOXYLIC ACID] | < 5
CC1(C)OCC(N(C(=O)c2ccc(Cl)cc2Cl)c2cc(-c3ccccc3)sc2C(=O)O)CO1 [Compound 535, 3-[(2,4-DICHLORO-BENZOYL)-(2,2- DIMETHYL-[1,3]DIOXAN-5-YL)-AMINO]-5- PHENYL-THIOPHENE-2-CARBOXYLIC ACID] | < 5
CC1CCC(C(=O)N(c2cc(C3CCN(C)CC3)sc2C(=O)O)C(C)C)CC1 (stereo not shown) [Compound 536, 3-[ISOPROPYL-(4-METHYL- CYCLOHEXANECARBONYL)-AMINO]-5-(1- METHYL-PIPERIDIN-4-YL)-THIOPHENE-2- CARBOXYLIC ACID] | < 5
CC(C)N(C(=O)[C@@H]1CC[C@@H](C)C[C@@H]1O)c1cc(-c2ccccc2)sc1C(=O)O [Compound 540, 3-[((1R,2S,4R)-2-HYDROXY-4-METHYL- CYCLOHEXANECARBONYL)-ISOPROPYL- AMINO]-5-PHENYL-THIOPHENE-2- CARBOXYLIC ACID] | < 5
COc1cc(C)c(S(=O)(=O)N2CC(C)=CCC2C(=O)N(c2cc(-c3ccccc3)sc2C(=O)O)C(C)C)c(C)c1C (stereo not shown) [Compound 541, 3-(ISOPROPYL-[1-(4-METHOXY-2,3,6- TRIMETHYL-BENZENESULFONYL)-5- METHYL-1,2,3,6-TETRAHYDRO- PYRIDINE-2-CARBONYL]-AMINO)-5- PHENYL-THIOPHENE-2-CARBOXYLIC ACID] | 5 to 20
CC(C)N(C(=O)c1ccc(Cl)cc1Cl)c1c(C(=O)O)sc(-c2ccccc2)c1F [Compound 542, 3-[(2,4-DICHLORO-BENZOYL)- ISOPROPYL-AMINO]-4-FLUORO-5- PHENYL-THIOPHENE-2-CARBOXYLIC ACID] | 5 to 20
CC1CCC(C(=O)N(CC2CCNCC2)c2cc(-c3ccccc3)sc2C(=O)O)CC1 (stereo not shown) [Compound 544, 4-([(2-CARBOXY-5-PHENYL-THIOPHEN-3- YL)-(4-METHYL- CYCLOHEXANECARBONYL)-AMINO]- METHYL)-PIPERIDINIUM; TRIFLUORO- ACETATE] | < 5
CC(CNC(=O)OC(C)(C)C)N(C(=O)c1ccc(Cl)cc1Cl)c1cc(-c2ccccc2)sc1C(=O)O (stereo not shown) [Compound 545, 3-[(2-TERT-BUTOXYCARBONYLAMINO-1- METHYL-ETHYL)-(2,4-DICHLORO- BENZOYL)-AMINO]-5-PHENYL- THIOPHENE-2-CARBOXYLIC ACID] | < 5
CC(C[NH3+])N(C(=O)c1ccc(Cl)cc1Cl)c1cc(-c2ccccc2)sc1C(=O)O (stereo not shown) [Compound 546, 2-[(2-CARBOXY-5-PHENYL-THIOPHEN-3- YL)-(2,4-DICHLORO-BENZOYL)-AMINO]- PROPYL-AMINE TRIFLUOROACETIC ACID SALT] | < 5
O=C(O)c1sc(-c2ccccc2)cc1N(C(=O)c1ccc(Cl)cc1Cl)C1CCC(C(=O)O)C1 (stereo not shown) [Compound 548, 3-[(3-CARBOXY-CYCLOPENTYL)-(2,4- DICHLORO-BENZOYL)-AMINO]-5- PHENYL-THIOPHENE-2-CARBOXYLIC ACID] | < 5
NC1CCCCC1N(C(=O)c1ccc(Cl)cc1Cl)c1cc(-c2ccccc2)sc1C(=O)O (stereo not shown) [Compound 549, 2-[(2-CARBOXY-5-PHENYL-THIOPHEN-3-YL)- (2,4-DICHLORO-BENZOYL)-AMINO]- CYCLOHEXYL-AMMONIUM; CHLORIDE] | < 5
Cc1ccc(S(=O)(=O)Nc2cc(-c3ccccc3)sc2C(=O)NCC(=O)O)cc1 [Compound 551, {[5-PHENYL-3-(TOLUENE-4- SULFONYLAMINO)-THIOPHENE-2- CARBONYL]-AMINO}-ACETIC ACID] | 5 to 20
Cc1ccccc1S(=O)(=O)Nc1cc(Br)sc1C(=O)O [Compound 552, 5-BROMO-3-(TOLUENE-2- SULFONYLAMINO)-THIOPHENE-2- CARBOXYLIC ACID] | 5 to 20
O=C(O)c1sc(-c2ccccc2)cc1N(C(=O)c1ccc(Cl)cc1Cl)C1CCCCC1 [Compound 553, 3-[CYCLOHEXYL-(2,4-DICHLORO- BENZOYL)-AMINO]-5-PHENYL- THIOPHENE-2-CARBOXYLIC ACID] | < 5
CC1CCC(C(=O)N(c2cc(-c3ccccc3)sc2C(=O)O)C2COCOC2)CC1 (stereo not shown) [Compound 554, 3-[[1,3]DIOXAN-5-YL-(4-METHYL- CYCLOHEXANECARBONYL)-AMINO]-5- PHENYL-THIOPHENE-2-CARBOXYLIC ACID] | < 5
CCN(CC)c1ncc(CN(C(=O)c2ccc(Cl)cc2Cl)c2cc(-c3ccccc3)sc2C(=O)O)s1 [Compound 557, 3-[(2,4-DICHLORO-BENZOYL)-(2- DIETHYLAMINO-THIAZOL-5-YLMETHYL)- AMINO]-5-PHENYL-THIOPHENE-2- CARBOXYLIC ACID] | < 5
CC[NH+](CC)c1ncc(CN(C(=O)c2ccc(Cl)cc2Cl)c2cc(-c3ccccc3)sc2C(=O)O)s1 [Compound 558, (5-{[[2-CARBOXY-5-PHENYL-THIOPHEN-3- YL)-(2,4-DICHLORO-BENZOYL)-AMINO]- METHYL}-THIAZOL-2-YL)-DIETHYL- AMMONIUM; CHLORIDE] | < 5
